Experimental data from the NIST ThermoML archive (doi:10.1016/j.fluid.2014.04.018).
“And” between values parts separate entries of the source, which are not always exact repeats. Equal entries are not always repeated. ± gives the expanded uncertainty stated by the source.

Conditions: Liquid, Vibrating tube method

CCCOC(=O)CCCCC(=O)OCCC [dipropyl hexanedioate]
Conditions | mass density
293.15 K, 100 kPa | 979.3 ± 3.9 kg/m3
293.15 K, 520 kPa | 979.7 ± 3.9 kg/m3
293.15 K, 1040 kPa | 980 ± 3.9 kg/m3
293.15 K, 2530 kPa | 981 ± 3.9 kg/m3
293.15 K, 5020 kPa | 982.5 ± 3.9 kg/m3
293.15 K, 7510 kPa | 984.1 ± 3.9 kg/m3
293.15 K, 7530 kPa | 984.2 ± 3.9 kg/m3
293.15 K, 10010 kPa | 985.7 ± 4 kg/m3
293.15 K, 15050 kPa | 988.9 ± 4 kg/m3
293.15 K, 20010 kPa | 991.8 ± 4 kg/m3
293.15 K, 30030 kPa | 997.7 ± 4 kg/m3
293.15 K, 39800 kPa | 1003.1 ± 4 kg/m3
293.15 K, 50070 kPa | 1008.4 ± 4 kg/m3
293.15 K, 65000 kPa | 1015.7 ± 4.1 kg/m3
303.15 K, 100 kPa | 970.4 ± 3.9 kg/m3 and 970.3 ± 3.9 kg/m3
303.15 K, 500 kPa | 970.7 ± 3.9 kg/m3
303.15 K, 510 kPa | 970.7 ± 3.9 kg/m3
303.15 K, 1010 kPa | 971.1 ± 3.9 kg/m3
303.15 K, 2510 kPa | 972.1 ± 3.9 kg/m3
303.15 K, 5000 kPa | 973.8 ± 3.9 kg/m3
303.15 K, 5030 kPa | 973.8 ± 3.9 kg/m3
303.15 K, 7510 kPa | 975.5 ± 3.9 kg/m3
303.15 K, 10010 kPa | 977.1 ± 3.9 kg/m3
303.15 K, 10020 kPa | 977.1 ± 3.9 kg/m3
303.15 K, 15010 kPa | 980.4 ± 3.9 kg/m3
303.15 K, 20000 kPa | 983.5 ± 3.9 kg/m3
303.15 K, 30000 kPa | 989.6 ± 4 kg/m3
303.15 K, 30010 kPa | 989.6 ± 4 kg/m3
303.15 K, 39800 kPa | 995.2 ± 4 kg/m3
303.15 K, 50010 kPa | 1000.7 ± 4 kg/m3
303.15 K, 64990 kPa | 1008.3 ± 4 kg/m3
303.15 K, 65010 kPa | 1008.3 ± 4 kg/m3
313.15 K, 100 kPa | 961.5 ± 3.9 kg/m3
313.15 K, 500 kPa | 961.8 ± 3.9 kg/m3
313.15 K, 1010 kPa | 962.2 ± 3.9 kg/m3
313.15 K, 2510 kPa | 963.3 ± 3.9 kg/m3
313.15 K, 5040 kPa | 965.1 ± 3.9 kg/m3
313.15 K, 7510 kPa | 966.8 ± 3.9 kg/m3
313.15 K, 10010 kPa | 968.5 ± 3.9 kg/m3
313.15 K, 15000 kPa | 971.9 ± 3.9 kg/m3
313.15 K, 19980 kPa | 975.2 ± 3.9 kg/m3
313.15 K, 30000 kPa | 981.6 ± 3.9 kg/m3
313.15 K, 39800 kPa | 987.4 ± 4 kg/m3
313.15 K, 39810 kPa | 987.4 ± 4 kg/m3
313.15 K, 50060 kPa | 993.2 ± 4 kg/m3
313.15 K, 65000 kPa | 1001 ± 4 kg/m3
323.15 K, 100 kPa | 952.4 ± 3.8 kg/m3
323.15 K, 500 kPa | 952.8 ± 3.8 kg/m3
323.15 K, 1010 kPa | 953.2 ± 3.8 kg/m3
323.15 K, 2530 kPa | 954.3 ± 3.8 kg/m3
323.15 K, 5020 kPa | 956.2 ± 3.8 kg/m3
323.15 K, 7510 kPa | 958 ± 3.8 kg/m3
323.15 K, 7550 kPa | 958.1 ± 3.8 kg/m3
323.15 K, 10000 kPa | 959.9 ± 3.8 kg/m3
323.15 K, 15030 kPa | 963.4 ± 3.9 kg/m3
323.15 K, 20010 kPa | 966.9 ± 3.9 kg/m3
323.15 K, 30010 kPa | 973.5 ± 3.9 kg/m3
323.15 K, 39820 kPa | 979.5 ± 3.9 kg/m3
323.15 K, 50020 kPa | 985.5 ± 4 kg/m3
323.15 K, 64990 kPa | 993.7 ± 4 kg/m3
333.15 K, 100 kPa | 943.5 ± 3.8 kg/m3
333.15 K, 500 kPa | 943.9 ± 3.8 kg/m3
333.15 K, 1020 kPa | 944.3 ± 3.8 kg/m3
333.15 K, 2520 kPa | 945.5 ± 3.8 kg/m3
333.15 K, 5010 kPa | 947.5 ± 3.8 kg/m3
333.15 K, 7510 kPa | 949.4 ± 3.8 kg/m3
333.15 K, 10000 kPa | 951.3 ± 3.8 kg/m3
333.15 K, 15000 kPa | 955.1 ± 3.8 kg/m3
333.15 K, 20000 kPa | 958.7 ± 3.8 kg/m3
333.15 K, 30020 kPa | 965.6 ± 3.9 kg/m3
333.15 K, 39790 kPa | 971.9 ± 3.9 kg/m3
333.15 K, 50050 kPa | 978.1 ± 3.9 kg/m3
333.15 K, 65000 kPa | 986.5 ± 4 kg/m3
343.15 K, 100 kPa | 934.6 ± 3.7 kg/m3
343.15 K, 520 kPa | 935 ± 3.8 kg/m3
343.15 K, 1040 kPa | 935.5 ± 3.8 kg/m3
343.15 K, 2540 kPa | 936.7 ± 3.8 kg/m3
343.15 K, 5020 kPa | 938.8 ± 3.8 kg/m3
343.15 K, 7510 kPa | 940.8 ± 3.8 kg/m3
343.15 K, 7520 kPa | 940.8 ± 3.8 kg/m3
343.15 K, 10020 kPa | 942.8 ± 3.8 kg/m3
343.15 K, 15000 kPa | 946.7 ± 3.8 kg/m3
343.15 K, 20030 kPa | 950.6 ± 3.8 kg/m3
343.15 K, 29580 kPa | 957.4 ± 3.8 kg/m3
343.15 K, 39860 kPa | 964.3 ± 3.9 kg/m3
343.15 K, 50020 kPa | 970.7 ± 3.9 kg/m3
343.15 K, 65000 kPa | 979.4 ± 3.9 kg/m3
353.15 K, 100 kPa | 925.7 ± 3.7 kg/m3
353.15 K, 510 kPa | 926.1 ± 3.7 kg/m3
353.15 K, 1020 kPa | 926.5 ± 3.7 kg/m3
353.15 K, 2530 kPa | 927.9 ± 3.7 kg/m3
353.15 K, 5020 kPa | 930.1 ± 3.7 kg/m3
353.15 K, 7510 kPa | 932.2 ± 3.7 kg/m3
353.15 K, 7530 kPa | 932.2 ± 3.7 kg/m3
353.15 K, 10000 kPa | 934.3 ± 3.7 kg/m3
353.15 K, 14550 kPa | 938 ± 3.8 kg/m3
353.15 K, 20020 kPa | 942.3 ± 3.8 kg/m3
353.15 K, 30010 kPa | 949.8 ± 3.8 kg/m3
353.15 K, 39800 kPa | 956.7 ± 3.8 kg/m3
353.15 K, 49990 kPa | 963.4 ± 3.9 kg/m3
353.15 K, 64990 kPa | 972.4 ± 3.9 kg/m3
363.15 K, 100 kPa | 916.7 ± 3.7 kg/m3
363.15 K, 500 kPa | 917.2 ± 3.7 kg/m3
363.15 K, 980 kPa | 917.6 ± 3.7 kg/m3
363.15 K, 2520 kPa | 919.1 ± 3.7 kg/m3
363.15 K, 5000 kPa | 921.3 ± 3.7 kg/m3
363.15 K, 7480 kPa | 923.6 ± 3.7 kg/m3
363.15 K, 10020 kPa | 925.8 ± 3.7 kg/m3
363.15 K, 15020 kPa | 930.1 ± 3.7 kg/m3
363.15 K, 20020 kPa | 934.2 ± 3.7 kg/m3
363.15 K, 30020 kPa | 942 ± 3.8 kg/m3
363.15 K, 39810 kPa | 949.1 ± 3.8 kg/m3
363.15 K, 50050 kPa | 956.1 ± 3.8 kg/m3
363.15 K, 64970 kPa | 965.4 ± 3.9 kg/m3
